Experimental data: patent US10499642B2, “Isoxazoline-substituted benzamides and analogues as insecticides” (SYNGENTA PARTICIPATIONS AG, priority 2015, dated 2019)
Read-outs that look alike come from different tables or passages of the source.

Assays:
Assay type in all cases: in vivo
Myzus persicae = Myzus persicae (green peach aphid) sunflower leaf disc test; conditions: foliar, 144 h
Protocol: Myzus persicae (Green Peach Aphid):
Sunflower leaf discs were placed on agar in a 24-well microtiter plate and sprayed with test solutions at an application rate of 200 ppm. After drying, the leaf discs were infested with an aphid population of mixed ages. After an incubation period of 6 days after treatment, samples were checked for mortality. The following compounds gave at least 80% mortality of Myzus persicae: […]

Diabrotica Balteata = test: Diabrotica balteata (corn root worm) maize sprout test; conditions: 96 h, read-out: effect in at least one of the two categories (mortality or growth inhibition)
Method in brief: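 Scoring covered both mortality and growth inhibition relative to untreated controls, 4 days post-infestation. Test solutions at 200 ppm, diluted in water from 10′000 ppm DMSO stocks, were sprayed onto agar-held maize sprouts, which after drying received 6 to 10 L2 larvae each well.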

Thrips tabaci = Thrips tabaci (onion thrips) sunflower leaf disc test; conditions: foliar, 144 h
Protocol: Thrips tabaci (Onion Thrips):
(§1) Sunflower leaf discs were placed on agar in 24-well microtiter plates and sprayed with aqueous test solutions prepared from 10′000 ppm DMSO stock solutions. After drying the leaf discs were infested with a thrips population of mixed ages. The samples were assessed for mortality 6 days after infestation.

Tetranychus urticae = Tetranychus urticae (two-spotted spider mite) bean leaf disc test; conditions: foliar, 192 h
Protocol: Tetranychus urticae (Two-Spotted Spider Mite):
as §1, with “Bean” for “Sunflower”, “discs” for “discs were placed”, “were” for “and”, “mite” for “thrips”, “on mixed population (mobile stages) 8” for “6”

Plutella xylostella = Plutella xylostella (diamond back moth) artificial diet test; conditions: 120 h, read-out: effect in at least one of the two categories (mortality or growth inhibition)
Method in brief: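 At a 200 ppm rate, test solutions were applied to artificial diet and allowed to dry before second-instar larvae were added. Five days later, larval mortality and growth inhibition were rated against untreated samples.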

Spodoptera littoralis = Spodoptera littoralis (Egyptian cotton leaf worm) cotton leaf disc test; conditions: foliar, 72 h, read-out: control (at least one of mortality, anti-feedant effect, and growth inhibition)
Method in brief: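 Five first-instar larvae per disc were placed on dried, sprayed cotton leaf discs held on agar. Test solutions were aqueous, made from 10′000 ppm DMSO stocks. At day 3, control was counted when mortality, feeding deterrence or growth inhibition exceeded the untreated discs.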

CCOC1=NO[C@H](NC(=O)c2ccc(C3=NO[C@@](c4cc(Cl)cc(Cl)c4)(C(F)(F)F)C3)cc2C)C1 (single isomer, unassigned) [Compound A158]
≥ 80%: mortality at 200 ppm (Myzus persicae) | percent effect (mortality or growth inhibition) at 200 ppm (Diabrotica Balteata) | mortality at 200 ppm (Thrips tabaci) | mortality at 200 ppm (Tetranychus urticae) | percent effect (mortality or growth inhibition) at 200 ppm (Plutella xylostella) | percent control (mortality, anti-feedant effect or growth inhibition) at 200 ppm (Spodoptera littoralis)

CSC1=NOC(NC(=O)c2ccc(C3=NO[C@@](c4cc(Cl)cc(C(F)(F)F)c4)(C(F)(F)F)C3)cc2C)C1 (stereo partly drawn) [Compound A050]
≥ 80%: mortality at 200 ppm (Myzus persicae) | percent effect (mortality or growth inhibition) at 200 ppm (Diabrotica Balteata) | mortality at 200 ppm (Thrips tabaci) | mortality at 200 ppm (Tetranychus urticae) | percent effect (mortality or growth inhibition) at 200 ppm (Plutella xylostella) | percent control (mortality, anti-feedant effect or growth inhibition) at 200 ppm (Spodoptera littoralis)

CCOC1=NOC(N(C=O)C(=O)c2ccc(C3=NO[C@@](c4cc(Cl)cc(Cl)c4)(C(F)(F)F)C3)cc2C)C1 (stereo partly drawn) [Compound A133, 4-[(5S)-5-(3,5-dichlorophenyl)-5-(trifluoromethyl)-4H-isoxazol-3-yl]-N-(3-ethoxy-4,5-dihydroisoxazol-5-yl)-N-formyl-2-methyl-benzamide]
≥ 80%: mortality at 200 ppm (Myzus persicae) | percent effect (mortality or growth inhibition) at 200 ppm (Diabrotica Balteata) | mortality at 200 ppm (Thrips tabaci) | mortality at 200 ppm (Tetranychus urticae) | percent effect (mortality or growth inhibition) at 200 ppm (Plutella xylostella) | percent control (mortality, anti-feedant effect or growth inhibition) at 200 ppm (Spodoptera littoralis)

CC1=NOC(N(C=O)C(=O)c2ccc(C3=NO[C@@](c4cc(Br)cc(C(F)(F)F)c4)(C(F)(F)F)C3)cc2C)C1 (stereo partly drawn) [Compound A040, 4-[(5S)-5-[3-bromo-5-(trifluoromethyl)phenyl]-5-(trifluoromethyl)-4H-isoxazol-3-yl]-N-formyl-2-methyl-N-(3-methyl-4,5-dihydroisoxazol-5-yl)benzamide]
≥ 80%: mortality at 200 ppm (Myzus persicae; application rate 200 ppm, sunflower leaf discs, population of mixed ages, 6 days after treatment, read-out: mortality) | percent effect (mortality or growth inhibition) at 200 ppm (Diabrotica Balteata; application rate 200 ppm, maize sprouts, L2 larvae, 4 days after infestation) | mortality at 200 ppm (Thrips tabaci; application rate 200 ppm, sunflower leaf discs, population of mixed ages, 6 days after infestation, read-out: mortality) | mortality at 200 ppm (Tetranychus urticae; application rate 200 ppm, bean leaf discs, mixed population (mobile stages), 8 days after infestation, read-out: mortality) | percent effect (mortality or growth inhibition) at 200 ppm (Plutella xylostella; application rate 200 ppm, artificial diet, L2 larvae, 5 days after infestation) | percent control (mortality, anti-feedant effect or growth inhibition) at 200 ppm (Spodoptera littoralis; application rate 200 ppm, cotton leaf discs, L1 larvae, 3 days after infestation)

CCOC1=NOC(NC(=O)c2ccc(C3=NO[C@@](c4cc(Cl)c(F)c(Cl)c4)(C(F)(F)F)C3)cc2Cl)C1 (stereo partly drawn) [Compound A064]
≥ 80%: mortality at 200 ppm (Myzus persicae) | percent effect (mortality or growth inhibition) at 200 ppm (Diabrotica Balteata) | mortality at 200 ppm (Thrips tabaci) | mortality at 200 ppm (Tetranychus urticae) | percent effect (mortality or growth inhibition) at 200 ppm (Plutella xylostella) | percent control (mortality, anti-feedant effect or growth inhibition) at 200 ppm (Spodoptera littoralis)

O=CN(C(=O)c1ccc(C2=NO[C@@](c3cc(Cl)c(Cl)c(Cl)c3)(C(F)(F)F)C2)cc1Cl)C1CC(Cl)=NO1 (stereo partly drawn) [Compound A017, 2-chloro-N-(3-chloro-4,5-dihydroisoxazol-5-yl)-N-formyl-4-[(5S)-5-(3,4,5-trichlorophenyl)-5-(trifluoromethyl)-4H-isoxazol-3-yl]benzamide]
≥ 80%: mortality at 200 ppm (Myzus persicae) | percent effect (mortality or growth inhibition) at 200 ppm (Diabrotica Balteata) | mortality at 200 ppm (Thrips tabaci) | mortality at 200 ppm (Tetranychus urticae) | percent effect (mortality or growth inhibition) at 200 ppm (Plutella xylostella) | percent control (mortality, anti-feedant effect or growth inhibition) at 200 ppm (Spodoptera littoralis)

Cc1cc(C2=NO[C@@](c3cc(Cl)c(F)c(Cl)c3)(C(F)(F)F)C2)ccc1C(=O)NC1CC(C(F)(F)F)=NO1 (stereo partly drawn) [Compound A005, 4-[(5S)-5-(3,5-dichloro-4-fluoro-phenyl)-5-(trifluoromethyl)-4H-isoxazol-3-yl]-2-methyl-N-[3-(trifluoromethyl)-4,5-dihydroisoxazol-5-yl]benzamide]
≥ 80%: mortality at 200 ppm (Myzus persicae) | percent effect (mortality or growth inhibition) at 200 ppm (Diabrotica Balteata) | mortality at 200 ppm (Thrips tabaci) | mortality at 200 ppm (Tetranychus urticae) | percent effect (mortality or growth inhibition) at 200 ppm (Plutella xylostella) | percent control (mortality, anti-feedant effect or growth inhibition) at 200 ppm (Spodoptera littoralis)

CCOCCOC1=NOC(NC(=O)c2ccc(C3=NO[C@@](c4cc(Cl)c(Cl)c(Cl)c4)(C(F)(F)F)C3)cc2C)C1 (stereo partly drawn) [Compound A107, N-[3-(2-ethoxyethoxy)-4,5-dihydroisoxazol-5-yl]-2-methyl-4-[(5S)-5-(3,4,5-trichlorophenyl)-5-(trifluoromethyl)-4H-isoxazol-3-yl]benzamide]
≥ 80%: mortality at 200 ppm (Myzus persicae) | percent effect (mortality or growth inhibition) at 200 ppm (Diabrotica Balteata) | mortality at 200 ppm (Thrips tabaci) | mortality at 200 ppm (Tetranychus urticae) | percent effect (mortality or growth inhibition) at 200 ppm (Plutella xylostella) | percent control (mortality, anti-feedant effect or growth inhibition) at 200 ppm (Spodoptera littoralis)

CC1=NOC(NC(=O)c2ccc(C3=NO[C@@](c4cc(Cl)c(F)c(Cl)c4)(C(F)(F)F)C3)cc2C)C1 (stereo partly drawn) [Compound A009, 4-[(5S)-5-(3,5-dichloro-4-fluoro-phenyl)-5-(trifluoromethyl)-4H-isoxazol-3-yl]-2-methyl-N-(3-methyl-4,5-dihydroisoxazol-5-yl)benzamide]
≥ 80%: mortality at 200 ppm (Myzus persicae) | percent effect (mortality or growth inhibition) at 200 ppm (Diabrotica Balteata) | mortality at 200 ppm (Thrips tabaci) | mortality at 200 ppm (Tetranychus urticae) | percent effect (mortality or growth inhibition) at 200 ppm (Plutella xylostella) | percent control (mortality, anti-feedant effect or growth inhibition) at 200 ppm (Spodoptera littoralis)

C=C(C)COC1=NOC(NC(=O)c2ccc(C3=NO[C@@](c4cc(Cl)c(F)c(Cl)c4)(C(F)(F)F)C3)cc2C)C1 (stereo partly drawn) [Compound A080]
≥ 80%: mortality at 200 ppm (Myzus persicae) | percent effect (mortality or growth inhibition) at 200 ppm (Diabrotica Balteata) | mortality at 200 ppm (Thrips tabaci) | mortality at 200 ppm (Tetranychus urticae) | percent effect (mortality or growth inhibition) at 200 ppm (Plutella xylostella) | percent control (mortality, anti-feedant effect or growth inhibition) at 200 ppm (Spodoptera littoralis)

Cc1cc(C2=NO[C@@](c3cc(Cl)c(F)c(Cl)c3)(C(F)(F)F)C2)ccc1C(=O)NC1CC(OCC(F)F)=NO1 (stereo partly drawn) [Compound A071]
≥ 80%: mortality at 200 ppm (Myzus persicae) | percent effect (mortality or growth inhibition) at 200 ppm (Diabrotica Balteata) | mortality at 200 ppm (Thrips tabaci) | mortality at 200 ppm (Tetranychus urticae) | percent effect (mortality or growth inhibition) at 200 ppm (Plutella xylostella) | percent control (mortality, anti-feedant effect or growth inhibition) at 200 ppm (Spodoptera littoralis)

C=C(Cl)COC1=NOC(NC(=O)c2ccc(C3=NO[C@@](c4cc(Cl)c(F)c(Cl)c4)(C(F)(F)F)C3)cc2C)C1 (stereo partly drawn) [Compound A100, N-[3-(2-chloroallyloxy)-4,5-dihydroisoxazol-5-yl]-4-[(5S)-5-(3,5-dichloro-4-fluoro-phenyl)-5-(trifluoromethyl)-4H-isoxazol-3-yl]-2-methyl-benzamide]
≥ 80%: mortality at 200 ppm (Myzus persicae) | percent effect (mortality or growth inhibition) at 200 ppm (Diabrotica Balteata) | mortality at 200 ppm (Thrips tabaci) | mortality at 200 ppm (Tetranychus urticae) | percent effect (mortality or growth inhibition) at 200 ppm (Plutella xylostella) | percent control (mortality, anti-feedant effect or growth inhibition) at 200 ppm (Spodoptera littoralis)

COC1=NO[C@H](NC(=O)c2ccc(C3=NO[C@@](c4cc(Cl)c(Cl)c(Cl)c4)(C(F)(F)F)C3)cc2C)C1 (single isomer, unassigned) [Compound A148]
≥ 80%: mortality at 200 ppm (Myzus persicae) | percent effect (mortality or growth inhibition) at 200 ppm (Diabrotica Balteata) | mortality at 200 ppm (Thrips tabaci) | mortality at 200 ppm (Tetranychus urticae) | percent effect (mortality or growth inhibition) at 200 ppm (Plutella xylostella) | percent control (mortality, anti-feedant effect or growth inhibition) at 200 ppm (Spodoptera littoralis)

CCSC1=NOC(NC(=O)c2ccc(C3=NO[C@@](c4cc(Cl)c(Cl)c(Cl)c4)(C(F)(F)F)C3)cc2C)C1 (stereo partly drawn) [Compound A052]
≥ 80%: mortality at 200 ppm (Myzus persicae) | percent effect (mortality or growth inhibition) at 200 ppm (Diabrotica Balteata) | mortality at 200 ppm (Thrips tabaci) | mortality at 200 ppm (Tetranychus urticae) | percent effect (mortality or growth inhibition) at 200 ppm (Plutella xylostella) | percent control (mortality, anti-feedant effect or growth inhibition) at 200 ppm (Spodoptera littoralis)

C=C(F)COC1=NOC(NC(=O)c2ccc(C3=NO[C@@](c4cc(Cl)c(F)c(Cl)c4)(C(F)(F)F)C3)cc2C)C1 (stereo partly drawn) [Compound A081]
≥ 80%: mortality at 200 ppm (Myzus persicae) | percent effect (mortality or growth inhibition) at 200 ppm (Diabrotica Balteata) | mortality at 200 ppm (Thrips tabaci) | mortality at 200 ppm (Tetranychus urticae) | percent effect (mortality or growth inhibition) at 200 ppm (Plutella xylostella) | percent control (mortality, anti-feedant effect or growth inhibition) at 200 ppm (Spodoptera littoralis)

CCOC1=NOC(NC(=O)c2ccc(C3=NO[C@@](c4cc(Cl)cc(C(F)(F)F)c4)(C(F)(F)F)C3)cc2C)C1 (stereo partly drawn) [Compound A047]
≥ 80%: mortality at 200 ppm (Myzus persicae) | percent effect (mortality or growth inhibition) at 200 ppm (Diabrotica Balteata) | mortality at 200 ppm (Thrips tabaci) | mortality at 200 ppm (Tetranychus urticae) | percent effect (mortality or growth inhibition) at 200 ppm (Plutella xylostella) | percent control (mortality, anti-feedant effect or growth inhibition) at 200 ppm (Spodoptera littoralis)
